Experimental data published in EPA's ToxValDB 9.5 (doi:10.2903/j.efsa.2008.144r).
In brackets after ≈: the same amount, converted by molar mass.

Key:
[1] = tested on: Daphnia magna; conditions: acute; duration: 48 hours; reproduction
[2] = tested on: Bibionidae; conditions: chronic/long-term; duration: 20 days
[3] = tested on: Tagia sp.
[4] = tested on: Lepomis macrochirus; conditions: acute; duration: 96 hours; mortality
[5] = tested on: Colinus virginianus
[6] = tested on: Pleurozium sp.; conditions: acute; duration: 72 hours; biomass
[7] = tested on: Apis mellifera; conditions: acute; duration: 48 hours; oral; unspecified; mortality
[8] = tested on: Rattus norvegicus
[9] = tested on: Oncorhynchus mykiss; conditions: chronic/long-term; duration: 94 days
[10] = tested on: Zea sp.; conditions: not reported; other
[11] = tested on: Oryctolagus sp.; conditions: developmental; development
[12] = tested on: Aphidius rhopalosiphi; test: LR50; higher = less toxic; conditions: not reported; mortality

CC(Cc1ccc(C(C)(C)C)cc1)CN1C[C@@H](C)O[C@@H](C)C1 (stereo partly drawn) [(2R,6S)-Fenpropimorph]
NOEC [1]: 0.024 mg/L
NOEC [2]: 0.13 mg/L
LC50 ([3]; acute, duration: 14 days, mortality): > 1000 mg/kg
NOEC ([3]; chronic/long-term): 9.92 mg/kg
LC50 [4]: 2.3 µg/mL (≈ 7.58 µM)
LD50 ([5]; acute, oral, mortality): > 2000 mg/kg
NOEC ([5]; reproduction developmental): > 30.3 mg/kg-day
NOEC [6]: 0.005 mg/L
LD50 [7]: > 95.6 µg/piece
LD50 ([8]; acute, oral, mortality): 2230 mg/kg
NOAEL ([8]; chronic, duration: 2 years, organ weight): 0.3 mg/kg-day
NOAEC ([8]; reproduction developmental, duration: 24 months, reproduction): 16 mg/kg-day
NOAEL ([8]; subchronic, duration: 90 days, oral, clinical chemistry): 0.7 mg/kg-day
NOEC [9]: 0.00016 mg/L
LEL [10]: 1690 g/ha
NOAEL [11]: 15 mg/kg-day
LR50 [12]: 25.7 g/ha
